Measured values: patent US10765655B2, “Composition containing monoacetyldiglyceride compound as active ingredient for preventing or treating chronic obstructive pulmonary disease” (ENZYCHEM LIFESCIENCES CORPORATION, priority 2013, dated 2020)
Marks after values point to notes of the source that are not given here.

How the values were obtained:
IL-4 mRNA = assay: Inhibition of PMA-induced IL-4 mRNA expression in EL-4 cells (PCR); type: cell-based, mouse; details: 20 μg/mL, PMA 1 ng/mL; for Inhibition (%) of IL-4 mRNA expression: vs PMA-treated group
Procedure: Based on the results of Example 1, each of the monoacetyldiacylglycerol compounds was added to EL-4 cells at a concentration of 20 μg/mL, and the effect thereof on the inhibition of PMA-induced expression of IL-4 mRNA in the EL-4 cells was measured. Specifically, the expression level of IL-4 mRNA induced by PMA (1 ng/mL) was measured using real-time polymerase chain reaction (real-time PCR) and quantitative real time polymerase chain reaction (qPCR). For cell preparation, EL-4 cells were seeded into a 6-well plate at a concentration of 1×10^6 cells/well and cultured for 12 hours, after which the cells were treated with each of the monoacetyldiacylglycerol compounds at a concentration of 20 μg/mL for 1 hour and treated with PMA at a concentration of 1 ng/m, followed by culture for 12 hours. Total RNA was extracted from the cells using Trizol B (Invitrogen, USA) and quantified, and then cDNA was synthesized from the total RNA using an Omniscript RT kit (Qiagen, GmbH, Hilden, Germany). The synthesized cDNA as a template was mixed with each of the IL-4 and GAPDH primers shown in Table 2 below and was subjected to PCR using a PCR mix (PCR Master Mix, Bioneer, Korea) under the following conditions: denaturation at 94° C. for 5 minutes; and then 30 cycles, each consisting of 30 sec at 95° C., 45 sec at 60° C., and 45 sec at 72° C.; followed by enzyme inactivation at 72° C. for 10 minutes. The results of measuring the percent inhibition of expression of IL-4 mRNA in EL-4 cells as described above are shown in Table 3 below. The designation of each of the samples shown in Table 3 below is as described with respect to Table above.

[1] = test system: total inflammatory cells in bronchoalveolar lavage fluid; assay: COPD mouse model (LPS+CS): total cell count in bronchoalveolar lavage fluid; type: in vivo, BALB/c mice; details: BALF; for % inhibition of total cell: vs COPD group
Procedure: (§1) To make COPD mouse models, 8-week-old male BALB/c mice were anesthetized with 7% chloral hydrate, and then intratracheally inhaled with 100 μl of a 1:1 mixture of 100 μg/ml of LPS and 4 mg/ml, of standard cigarette smoking (CS) extract (LPS+CS mixture) once a week for 3 weeks. […] EC-18 was dissolved in 0.5% CMC (carboxmethylcellulose sodium) to concentrations of 30 mg/kg and 60 mg/kg, and administered orally to the mice at 1 hour before intratracheal inhalation of 100 μl of the PS+CS mixture. The mice were divided into: (i) an untreated normal group (intact); (ii) a control group treated with LPS+CS (COPD-control); (iii) a test group administered orally with 30 mg/kg of EC-18 at 1 hour before treatment with LPS+CS; and (iv) a test group administered orally with 60 mg/kg of EC-18 at 1 hour before treatment with the LPS+CS mixture. After completion of the experiment, blood, bronchoalveolar lavage fluid and lung tissue were isolated from the mice of each of the groups.
(§2) After blood collection, the mice were dissected. To isolate cells from the bronchoalveolar lavage fluid (BALF), a syringe containing 1 ml of FBS-free DMEM medium was injected into the trachea and fixed with a string, and then cells were separated by performing circulation three times and were treated with ACK solution at 37° C. for 5 minutes to lyse red blood cells. Next, the cells were washed with FBS-free DMEM medium and then stained with 0.04% trypan blue, after which the number of total cells was measured.

[2] = test system: neutrophils in bronchoalveolar lavage fluid; assay: COPD mouse model (LPS+CS): neutrophil count in bronchoalveolar lavage fluid; type: in vivo, BALB/c mice; details: BALF; for % inhibition of neutrophil: vs COPD group
Procedure: as §1, §2

CD4+ cells = assay: COPD mouse model: CD4+ cells in BAL by flow cytometry; type: in vivo, BALB/c mice; details: for CD4^+ cells (10^4): BAL cells; for % inhibition of CD4^+ cells: vs COPD group
Procedure: as §1
(§3) The separated BAL cells were adjusted to 5×10^5 cells, and then subjected to immunofluorescence staining at 4° C. PE-anti-CD4 (553047, BD Pharmingen) and PE-anti-Gr-1 (553128, BD Pharmingen) were added to the cells which were then incubated on ice for 30 minutes. After incubation, the cells were washed three times or more with phosphate buffered saline, and then the frequency of CD4^+ cells and Gr-1^+ neutrophils was analyzed using the Cell Quest program (643274, BD Biosciences) of a flow cytometer. Next, based on total cells, the absolute number of cells in each tissue was calculated.

Gr-1+ neutrophils = assay: COPD mouse model: Gr-1+ neutrophils in BAL by flow cytometry; type: in vivo, BALB/c mice; details: for Gr-1^+ neutrophils (10^4): BAL cells; for % inhibition of Gr-1^+ neutrophils: vs COPD group
Procedure: as §1, §3

CXCL-1 = assay: COPD mouse model: CXCL-1 in bronchoalveolar lavage fluid by ELISA; type: in vivo, BALB/c mice; details: for CXCL-1: BALF; for % inhibition of CXCL-1: vs COPD group
Procedure: as §1
(§4) The levels of CXCL-1, TNF-α and MIP-2 in the bronchoalveolar lavage isolated from the mice were measured by an enzyme-linked immunosorbent assay (ELISA). An antibody specific for each of CXCL-1, TNF-α and MIP-2 was diluted in coating buffer (291195, R&D System), coated on microwells, and then incubated overnight at 4° C. Each well was washed three times with washing buffer, and then 100 μl of serum (10-fold diluted) was added to each well. Each well was allowed to stand at room temperature for 1 hour, and then washed twice with washing buffer antibody, after which each well was treated with 100 μl of avidin-conjugated HRP (DY998, R&D System) and allowed to stand at room temperature for 1 hour, followed by washing. 100 μl of a TMB substrate was added to each well which was then allowed to stand in a dark room for 30 minutes and treated with 50 μl of a stop solution. Next, the absorbance at 450 nm was measured using an ELISA reader (Emax, Molecular Devices), and the percent inhibition of expression was calculated.

TNF-α = assay: COPD mouse model: TNF-α in bronchoalveolar lavage fluid by ELISA; type: in vivo, BALB/c mice; details: for TNF-α: BALF; for % inhibition of TNF-α: vs COPD group
Procedure: as §1, §4

MIP-2 = assay: COPD mouse model: MIP-2 in bronchoalveolar lavage fluid by ELISA; type: in vivo, BALB/c mice; details: for MIP-2: BALF; for % inhibition of MIP-2: vs COPD group
Procedure: as §1, §4

sepsis animal model = details: cecal-ligation-puncture; cited from earlier work
[3] = GLP toxicity test; cited from earlier work
EL-4 cells = details: mouse, 24 h, 10 μg/ml
Procedure: EL-4 cells that are mouse T lymphoma cells were suspended in 10% fetal bovine serum-containing RPMI medium (Gibco) at a concentration of 5×10^4 cells/ml, and 100 μl of the cell suspension was seeded into each well of a 96-well plate and cultured for 12 hours. Next, the cell culture was treated with monoacetyldiacylglycerol (MADG) compounds at the concentrations shown in Table 1 below, and was then additionally cultured for 24 hours. Next, according to the instruction provided in a CCK-8 kit (Dojindo) capable of counting cells, 10 μl of CCK-8 solution was added to the kit and allowed to react for 30 minutes to 4 hours, and then the absorbance (OD) at 570 nm was measured. In equation 1, the negative control group indicates a cell culture treated with 0.2% DMSO. […] Cell viability (%)=[(OD 570 nm value of MADC-treated group)/(OD 570 nm value of negative control group)]×100 Equation 1

CCCCC/C=C\C/C=C\CCCCCCCC(=O)OC(COC(C)=O)COC(=O)CCCCCCCCCCCCCCC (stereo not shown) [EC-18, 1-palmitoyl-2-linoleoyl-3-acetylglycerol]
Expression level of IL-4 mRNA (percentage relative to PMA-treated group) (IL-4 mRNA): 78.17 ± 6.26 percentage
Inhibition (%) of IL-4 mRNA expression (IL-4 mRNA): 21.83%
Total cell (10^6) ([1]; 30 mg/kg oral): 81.0 ± 12.14^ 10^6
% inhibition of total cell ([1]; 30 mg/kg oral): 15.1%
Total cell (10^6) ([1]; 60 mg/kg oral): 52.8 ± 10.41* 10^6
% inhibition of total cell ([1]; 60 mg/kg oral): 44.8%
Neutrophil ([2]; 30 mg/kg oral): no great change
% inhibition of neutrophil ([2]; 30 mg/kg oral): 3%
Neutrophil ([2]; 30 mg/kg oral, listed as EC18): 196.9 ± 31.61
Neutrophil ([2]; 60 mg/kg oral): 116.8 ± 37.43
% inhibition of neutrophil ([2]; 60 mg/kg oral): 42%
CD4^+ cells (10^4) (CD4+ cells; 30 mg/kg oral): 308.2 ± 66.78 10^4
% inhibition of CD4^+ cells (CD4+ cells; 30 mg/kg oral): 39.6%
CD4^+ cells (10^4) (CD4+ cells; 60 mg/kg oral): 152.8 ± 66.25 10^4
% inhibition of CD4^+ cells (CD4+ cells; 60 mg/kg oral): 70.0%
Gr-1^+ neutrophils (10^4) (Gr-1+ neutrophils; 30 mg/kg oral): 20.0 ± 6.97 10^4
% inhibition of Gr-1^+ neutrophils (Gr-1+ neutrophils; 30 mg/kg oral): 40.9%
Gr-1^+ neutrophils (10^4) (Gr-1+ neutrophils; 60 mg/kg oral): 12.6 ± 4.93 10^4
% inhibition of Gr-1^+ neutrophils (Gr-1+ neutrophils; 60 mg/kg oral): 62.7%
CXCL-1 (CXCL-1; 30 mg/kg oral): 264.3 ± 79.77 pg/mL
% inhibition of CXCL-1 (CXCL-1; 30 mg/kg oral): 15.4%
CXCL-1 (CXCL-1; 60 mg/kg oral): 142.9 ± 26.99 pg/mL
% inhibition of CXCL-1 (CXCL-1; 60 mg/kg oral): 54.3%
TNF-α (TNF-α; 30 mg/kg oral): 22.4 ± 13.98 pg/mL
% inhibition of TNF-α (TNF-α; 30 mg/kg oral): 36.0%
TNF-α (TNF-α; 60 mg/kg oral): 13.4 ± 5.33 pg/mL
% inhibition of TNF-α (TNF-α; 60 mg/kg oral): 61.8%
MIP-2 (MIP-2; 30 mg/kg oral): 28.9 ± 5.72 pg/mL
% inhibition of MIP-2 (MIP-2; 30 mg/kg oral): 40.6%
MIP-2 (MIP-2; 60 mg/kg oral): 17.6 ± 4.07 pg/mL
% inhibition of MIP-2 (MIP-2; 60 mg/kg oral): 63.8%
survivability ratio of animals (sepsis animal model): increases survivability ratio of animals
toxicity [3]: no-toxicity

CCCCCCCCCCCCCCCCCC(=O)OC(COC(C)=O)COC(=O)CCCCCCCCCCCCCCC (stereo not shown) [PSAG, 1-palmitoyl-2-stearoyl-3-acetylglycerol]
Expression level of IL-4 mRNA (percentage relative to PMA-treated group) (IL-4 mRNA): 70.49 ± 17.78 percentage
Inhibition (%) of IL-4 mRNA expression (IL-4 mRNA): 29.51%

CCCCCCCC/C=C\CCCCCCCC(=O)OCC(COC(C)=O)OC(=O)CCCCCCCCCCCCCCC (stereo not shown) [OPAG, 1-oleoyl-2-palmitoyl-3-acetylglycerol]
Expression level of IL-4 mRNA (percentage relative to PMA-treated group) (IL-4 mRNA): 58.58 ± 21.74 percentage
Inhibition (%) of IL-4 mRNA expression (IL-4 mRNA): 41.42%

CCCCCCCC/C=C\CCCCCCCC(=O)OC(COC(C)=O)COC(=O)CCCCCCCCCCCCCCC (stereo not shown) [POAG, 1-palmitoyl-2-oleoyl-3-acetylglycerol]
Expression level of IL-4 mRNA (percentage relative to PMA-treated group) (IL-4 mRNA): 75.47 ± 13.15 percentage
Inhibition (%) of IL-4 mRNA expression (IL-4 mRNA): 24.53%
EL-4 cell viability (%, mean ± SD) (EL-4 cells): 106.39 ± 1.19%

CCCCCCCCCCCCCCCC(=O)OCC(COC(C)=O)OC(=O)CCCCCCCCCCCCCCC (stereo not shown) [PPAG, 1-palmitoyl-2-palmitoyl-3-acetylglycerol]
Expression level of IL-4 mRNA (percentage relative to PMA-treated group) (IL-4 mRNA): 48.62 ± 19.38 percentage
Inhibition (%) of IL-4 mRNA expression (IL-4 mRNA): 51.38%

CCCCCCCC/C=C\CCCCCCCC(=O)OCC(COC(C)=O)OC(=O)CCCCCCCCCCCCCCCCC (stereo not shown) [OSAG, 1-oleoyl-2-stearoyl-3-acetylglycerol]
Expression level of IL-4 mRNA (percentage relative to PMA-treated group) (IL-4 mRNA): 55.84 ± 25.77 percentage
Inhibition (%) of IL-4 mRNA expression (IL-4 mRNA): 44.16%

CCCCC/C=C\C/C=C\CCCCCCCC(=O)OCC(COC(C)=O)OC(=O)CCCCCCCCCCCCCCCCC (stereo not shown) [LSAG, 1-linoeoyl-2-stearoyl-3-acetylglycerol]
Expression level of IL-4 mRNA (percentage relative to PMA-treated group) (IL-4 mRNA): 41.62 ± 17.61 percentage

CCCCC/C=C\C/C=C\CCCCCCCC(=O)OCC(COC(C)=O)OC(=O)CCCCCCCCCCCCCCC (stereo not shown) [LPAG, 1-linoeoyl-2-palmitoyl-3-acetylglycerol]
Expression level of IL-4 mRNA (percentage relative to PMA-treated group) (IL-4 mRNA): 61.11 ± 27.49 percentage
